From patent publication US20210063374A1, “ABNORMAL CARDIAC RHYTHM MYOCARDIAL MODEL AND METHOD FOR PRODUCING SAME, AGENT FOR FORMING ABNORMAL CARDIAC RHYTHM MYOCARDIAL MODEL, AND METHOD FOR EVALUATING DRUG EFFICACY OF HEART DISEASE THERAPEUTIC” (TOPPAN PRINTING CO., LTD., priority 2017, published 2021)
Entries after “also recorded” stand apart in the source; their conditions may differ.

System: myocardial models composed of three-dimensional tissues (iPS-CM 75%/NHCF 25%)
Experiment: Evaluation of drug response to isoproterenol (change rate of the number of beats of myocardial model)
Type: cell-based, human
Settings: 100 nM isoproterenol, 30, 60, 80 min incubation, FIG. 12
Method: 5 mL of 10× phosphate buffered saline (PBS) was added to 50 mg of a pig skin-derived type I collagen (provided by NH Foods Ltd.), and was subjected to homogenization by using a homogenizer for 6 min. Subsequently, centrifugation was performed at 10000 rpm for 3 min to remove the supernatant. 5 mL of serum-free DMEM was added thereto, followed by washing by pipetting for 1 min. After the washing, centrifugation was performed at 10000 rpm for 3 min to remove the supernatant. 5 mL of serum-containing DMEM was added thereto to prepare a culture medium (CMF concentration: 9.8 mg/mL) having fragmented collagens (CMF) dispersed therein. Dispersions were weighed from the culture medium having CMF dispersed therein such that the amounts of CMFs were 0, 1, 2, and 3 mg, were mixed with 5×10^5 cells of iPS-CM 75%/NHCF 25%, and were seeded in a 96-well round-bottomed non-adherent plate (the amount of the culture medium: 300 μL). Subsequently, centrifugation was performed at 1100 g for 5 min to precipitate the CMFs and the cells. After the centrifugation, culturing was performed in a culture-ware at 37° C. The culture medium was replaced every 2 days by removing the old culture medium and adding 300 μL of new culture medium.
A three-dimensional tissue was constructed in the same manner as above. […] The content of the collagen in the three-dimensional tissue was measured using the kit above according to the standard protocol of the kit.
The cardiac rhythms of the tissues after culturing for 5 to 6 days were taken using a SONY Motion analyzer to measure the number of beats. […] From the results of measurement, the change rate of the number of beats (change rate of beating) by adding isoproterenol was calculated from the following equation. […]
The change rate of the number of beats caused by addition of isoproterenol is determined by the equation above, and this value is corrected by the equation below, i.e., by dividing this value by the change rate of the number of beats when the drug is not added (=a change in the number of beats caused by replacement of the culture medium).

With `CC(C)NCC(O)c1ccc(O)c(O)c1` (stereo not drawn) [isoproterenol] the “drug response (change rate of the number of beats)” value (myocardial model with 0 mg CMFs) was “poor”, the “drug response (change rate of the number of beats)” value (myocardial model with 1 mg CMFs) was “exhibited; also recorded: more favorable drug response” and the “drug response (change rate of the number of beats)” value (myocardial model with 3 mg CMFs) was “exhibited”.
